Several values for one entry are separate records, joined by “and”; a condition that tells them apart may be missing. Identical values can stand only once. Like-named read-outs stand apart in the source and are kept apart here.
How the values were obtained:
[1] = tested on: hiPSC-CMs (human induced pluripotent stem cell-derived cardiomyocyte-like cells, lines C2 and C3); assay: Multielectrode array (MEA) field potential recording: cFPD and FPmin; assay type: cell-based; settings: for FPmin (normalized values): baseline 100±0; for change in FPmin (in words) / changes in cFPD (in words): drug alone; for changes in cFPD (in words): CMs from both cell lines; for cFPD (normalized) after reversal of isoprenaline-reduced cFPD: beta-blocker applied after isoprenaline (0.1 μM); for cFPD effect relative to human ETPC unbound range (in words): non-linear regression of normalized cFPD, dose range 10^−9-10^−4 M
Experimental: Human iPSC lines [MSnviPSNF2 (C2), MSnviPSNF3 (C3)] were maintained on 1% matrigel (BD Biosciences, CA, USA) and grown in chemically defined mTeSR1 medium (Stem Cell Technologies, VA, Canada). Care was taken to manually remove the differentiated areas (<10%) with the help of a scraper before passaging. Cells were washed with DMEM-F12 (Invitrogen, USA) and incubated with 1 mg/ml dispase (Sigma, USA) for 5-7 minutes. Cells were then washed with DMEM-F12 and colonies scrapped from the culture dishes. Controlled tituration of the colonies was performed to get small clumps of approximately 50-70 μm in size for replating on new matrigel coated dishes (1:6 split ratio).
Subsequently, EBs were plated on 0.1% gelatin coated dishes in EB medium without SB203580. […] Beating areas were manually cut after day 21 of differentiation and utilized for various experiments.
(§1) To characterize the electrophysiological properties of the hiPSC-CMs, a multielectrode array (MEA) recording system (Multichannel Systems, Reutlingen, Germany) was used. The contracting areas were microdissected and plated on gelatin coated MEA plates. The MEA system allows simultaneous recordings from 60 titanium nitride electrodes (30 μm) at high spatial (200 μm) and temporal (15 kHz) resolutions. To assess the effects of different drugs on the electrophysiological properties, the stock drugs in DMSO were diluted in medium (2 mL). All drugs utilized in the study were purchased from Sigma, USA. Extracellular recording were performed for 180-300 seconds at baseline and at 5 minutes after drug application. The local activation maps were generated using Cardio2D software (Multichannel Systems, Reutlingen, Germany). The recorded electrograms were also used to determine the local field potential (FP) duration (FPD).
Comparisons at each time point were conducted using analysis of variance (ANOVA), and all data are presented as mean values±s.e.m of three independent experiments. Differences were considered statistically significant at p≦0.05. Corrected field potential duration curves were fitted using the one phase decay algorithm from GraphPad Prism software.

[2] = tested on: hiPSC-CMs; settings: for modulation of beating rates (in words): beta-blocker applied alone; for effect on isoprenaline-induced increase in beating frequencies (in words): clusters initially treated with isoprenaline
Excerpt: as §1
The different agents were also evaluated to determine if these agents (drugs) could induce arrhythmia in hiPSC-CMs at supraphysiological ranges.

[3] = tested on: hiPSC-CMs; assay: MEA conduction velocity; assay type: cell-based, human
Excerpt: as §1

[4] = tested on: contracting EBs (iPSC-derived cardiomyocyte-like cells); assay: Beat rate variability analysis in beta-adrenergic response (power spectral density of RR intervals); assay type: cell-based, human; settings: 0.1 μM isoprenaline, then 1 μM beta-blocker where stated
Excerpt: To study the autonomic modulations of beating period of the contracting EBs, power spectral density of beat-to-beat or RR intervals based on 5-min recordings from the MEA were used to derive the Total Power (TP), very low frequency power (VLF), low frequency power (LF), high frequency power (HF), LF (normalized unit), HF (normalized unit) and ratio of LF/HF of spectral of beat rate variability using software such as HRV Toolkit (physionet.org/tutorials/hrv-toolkit/, Harvard Medical School) or LabVIEW Biomedical Toolkit for heart rate variability. […] The data were obtained using iPSC-derived cardiomyocyte-like cells from an individual with genetic pre-disposition to cardiac arrhythmia (n=4; referring to 4 regional areas within an EB), and iPSC-derived cardiomyocyte-like cells from a normal individual without genetic pre-disposition to cardiac arrhythmia (n=10).

[5] = human, unbound therapeutic plasma concentration; cited from earlier work
[6] = EBs from individual with genetic disposition to arrhythmia (n=4)
[7] = EBs from normal healthy donor (n=10)
[8] = over all three tested doses (range 0.01-10 μM)

## CCCCc1oc2ccccc2c1C(=O)c1cc(I)c(OCCN(CC)CC)c(I)c1 [amiodarone, Amiodarone]
[1]; 1 μM
  cFPD prolongation: 37%
[1]; 1 μM, C2 derived CM, baseline 0.26±0.009 s, n=3
  cFPD: 0.36 ± 0.01 s
[1]; 1 μM, C2 derived CMs
  FPmin shortening: 25%
[1]; 1 μM, C2 derived CMs, n=3
  FPmin (normalized values): 73.6±3.8
[1]; 1 μM, C3 derived CMs, n=3, ns
  FPmin (normalized values): 90±2.7
[1]; 1 μM, C3 derived CMs, ns
  FPmin reduction: 10%
[2]; higher doses, 10-100 μM
  effect on beating frequencies (in words): increased beating frequencies

## O=C(NCC1CCCCN1)c1cc(OCC(F)(F)F)ccc1OCC(F)(F)F (centres unmarked) [flecainide, Flecainide]
[1]; 1 μM
  increase in cFPDs: 1.7 fold
[1]; 1 μM, C2 derived CMs, baseline 0.32±0.04 s, n=3
  cFPD: 0.55 ± 0.06 s
[1]
  change in FPmin (in words): did not show any significant change
[2]; 10 μM
  increase in beating frequencies: 2 fold
[3]; 1 μM
  reduction of conduction velocity: 45%
[3]; lowest dose, 0.01 μM
  reduction of conduction velocity (in words): did not show any significant reduction

## CC(C)NCC(O)c1ccc(O)c(O)c1 (centres unmarked) [isoprenaline]
[1]; 0.1 μM
  cFPD reduction: 20%
[1]; 0.1 μM isoprenaline, baseline 100±0.0%, n=3
  cFPD (normalized): 81.2±2.4% and 79.6±3.4%
[2]; clusters treated with the beta-adrenergic agonist
  effect on beating frequencies (in words): significant increase in beating frequencies
[4]; [6]
  HF (normalized unit): 38.864±16.674%
  LF (normalized unit): 61.136±16.674%
  LF/HF ratio: 1.897±1.052
  Total Power (TP) of beat rate variability: 0.464±0.047 ms^2
  high frequency power (HF): 0.064±0.095 ms^2
  low frequency power (LF): 0.058±0.043 ms^2
  very low frequency power (VLF): 0.341±0.167 ms^2
[4]; [7]
  HF (normalized unit): 25.494±2.381%
  LF (normalized unit): 74.505±2.380%
  LF/HF ratio: 2.949±0.326
  Total Power (TP) of beat rate variability: 0.645±0.001 ms^2
  high frequency power (HF): 0.017±0.002 ms^2
  low frequency power (LF): 0.050±0.001 ms^2
  very low frequency power (VLF): 0.578±0.002 ms^2

## CCN(CC)CC(=O)Nc1c(C)cccc1C [lidocaine, Lidocaine]
[1]
  changes in cFPD (in words): did not demonstrate any significant changes
[1]; maximal effects at 10 μM dosage
  effect on FPmin, dose-dependent treatment (in words): FPmin shortening
[3]; [8]
  reduction of conduction velocity: 40%

## CC(C)(C)NCC(O)COc1cccc2c1CC(O)C(O)C2 (centres unmarked) [nadolol, Nadolol]
[1]; n=3
  cFPD (normalized) after reversal of isoprenaline-reduced cFPD: 92.3±1.5%
[1]
  change in FPmin (in words): did not have any significant effects
  changes in cFPD (in words): did not have any significant effects
  cFPD effect relative to human ETPC unbound range (in words): no significant cFPD prolongation within the ETPC unbound range
[2]
  modulation of beating rates (in words): not apparent
  effect on isoprenaline-induced increase in beating frequencies (in words): reversed
[5]
  ETPC unbound range: 0.18 to 0.80 µM

## CC(C)NCC(O)COc1cccc2ccccc12 (centres unmarked) [propranolol, Propranolol]
[1]; n=3
  cFPD (normalized) after reversal of isoprenaline-reduced cFPD: 98.3±4.5%
[1]
  change in FPmin (in words): did not have any significant effects
  changes in cFPD (in words): did not have any significant effects
[2]
  modulation of beating rates (in words): not apparent
  effect on isoprenaline-induced increase in beating frequencies (in words): reversed
[2]; higher doses, 10-100 μM
  effect on beating frequencies (in words): did not show any major effect

## C=C[C@H]1C[N@@]2CC[C@H]1C[C@@H]2[C@@H](O)c1ccnc2ccc(OC)cc12 [quinidine, Quinidine]
[1]; 10 μM, C2 cell line derived CMs
  FPmin shortening: 55%
[1]; 10 μM, C2 cell line derived CMs, baseline 100, n=3
  FPmin (normalized): 45±3.5%
[1]; 10 μM, C2 line derived CMs, baseline 0.31±0.03 s, n=3
  cFPD: 0.50 ± 0.05 s
[1]; 10 μM, C3 cell line derived CMs
  maximum FPmin shortening: 37%
[1]; 10 μM, CMs derived from C2 line
  cFPD prolongation: 62%
[1]; 10 μM, hiPSC-CMs (FIG. 1A, C)
  cFPD prolongation: 55%
[2]; 100 μM
  increase in beating frequencies: 3 fold
[2]; 100 μM, baseline 0.66±0.06 Hz, n=3
  beating frequency (BF): 1.84±0.08 Hz
[3]; [8]
  reduction of conduction velocity: 20-25%

## CC(C)NCC(O)c1ccc(NS(C)(=O)=O)cc1 (centres unmarked) [sotalol, Sotalol]
[1]; 50 μM
  cFPD prolongation: 65%
[1]
  change in FPmin (in words): did not show any significant change
  cFPD effect relative to human ETPC unbound range (in words): maximally observed within the human ETPC range
[2]; 500 μM
  increase in beating frequencies: 1.8 fold
[5]
  ETPC unbound range: 1.8 to 14 µM

## COc1ccc(CCN(C)CCCC(C#N)(c2ccc(OC)c(OC)c2)C(C)C)cc1OC (centres unmarked) [verapamil, Verapamil]
[2]
  effect on beating frequencies (in words): significantly reduced beating frequencies
[2]; 5 μM
  effect of prolonged exposure (in words): beating arrest

Reference: patent US20140363841A1, “INDUCED PLURIPOTENT STEM CELL (IPSC)-DERIVED CARDIOMYOCYTE-LIKE CELLS AND USES THEREOF” (priority 2012, published 2014)
